Source: patent US20240293422A1, “SHP2 AND CDK4/6 INHIBITORS COMBINATION THERAPIES FOR THE TREATMENT OF CANCER” (Erasca, Inc., priority 2021, published 2024)

Assays:
[1] = system: KRAS^G12S mutated A549 cells; assay: Clonogenic assay (colony formation), A549; type: cell-based, human; conditions: for colony formation (in words): A549, 2000 cells per well, 14 days, crystal violet, various concentrations; for reduction of colony formation: A549, quantification FIG. 1B, each agent alone or combination, concentrations not given
Protocol: (§1) Cells and Reagents: The cell lines were obtained from ATCC (SW620 #CCL-227, A549 #CCL-185 and NCI-H441 #HTB-174). The cell lines, LS180 (ECACC #87021202) and Gp2D (ECACC #95090714). The cell line, CAL 27 was cultured in DMEM (Gibco #). SCC-4, SCC-15, SCC-25, SCC-9 cell lines were cultured in a 1:1 mixture of DMEM and Ham's F12 medium containing 1.2 g/L sodium bicarbonate, 2.5 mM L-glutamine, 15 mM HEPES and 0.5 mM sodium pyruvate supplemented with 400 ng/ml hydrocortisone, 90%; fetal bovine serum, 10% (Hyclone #SH-30071.03) and Penicillin/Streptomycin (Thermo Fisher #15070-063). The cells were maintained at 37° C./5% CO2.
(§2) Clonogenic assay: The cells were plated onto 6-well plates in 2 ml cell culture medium. The cells were incubated overnight and treated with various concentration of the compound of Formula I and Palbociclib. After 7 days incubation, the medium was replaced with fresh medium, cells were treated again with same concentration of the compound of Formula I and Palbociclib and incubated for additional 7 days. After 14 days of total incubation, the cells were washed with PBS twice and fixed 30 mins with 4% formaldehyde. The cells were washed twice with PBS and incubated with 0.1% crystal violet for 60 mins. After the crystal violet staining, the cells were washed five times with water and let it dry at room temperature. After the plates were dried, the crystal staining was de-stained with 1 ml of 10% acetic acid and absorbance was measured at 560 nm.
(§3) Cell lines from each of KRAS^G12D (LS513 and Gp2D), KRAS^G12S (A549) and KRAS^G12V (NCI-H441 and SW620) mutations were split onto 6-well plates in 2 ml cell culture medium. The cells were incubated overnight and treated with various concentration of the compound of Formula I and Palbociclib and assayed using the Clonogenic Assay protocol described above.
The A549 cells were split onto 6 well plates (2000 cells per well). After overnight incubation, the cells were treated with the compound of Formula I alone and treated in combination with palbociclib and colony formation was determined as mentioned in method. […] (FIG. 1A).

[2] = system: KRAS^G12V mutated NCI-H441 cells; assay: Clonogenic assay (colony formation), NCI-H441; type: cell-based, human; conditions: for colony formation (in words): NCI-H441, 8000 cells per well, 14 days, crystal violet, various concentrations
Protocol: as §1, §2, §3
(§4) The NCI-H441 and SW620 cells were split onto 6 well plates (8000 and 4000 calls per well respectively). After overnight incubation, the cells were treated with the compound of Formula I alone and treated in combination with palbociclib and colony formation was determined as mentioned in method. […] (FIGS. 2A&3A). […] There was a pronounced inhibition of colony formation (about 80%) observed with combination of the compound of Formula I and palbociclib treatment. […] There was a pronounced inhibition of colony formation (about 60%) observed with combination of the compound of Formula I and palbociclib treatment.

[3] = system: KRAS^G12V mutated SW620 cells; assay: Clonogenic assay (colony formation), SW620; type: cell-based; conditions: for colony formation (in words): SW620, 4000 cells per well, 14 days, crystal violet, various concentrations
Protocol: as §1, §2, §3, §4

[4] = system: KRAS^G12D mutated LS-180 cells; assay: Clonogenic assay (colony formation), LS-180; type: cell-based; conditions: for colony formation (in words): LS-180, 4000 cells per well, 14 days, crystal violet, various concentrations
Protocol: as §1, §2, §3
(§5) The LS-180 and Gp2D cells were split onto 6 well plates (4000 and 8000 calls per well respectively). After overnight incubation, the cells were treated with the compound of Formula I alone and treated in combination with palbociclib and colony formation was determined as mentioned in method. […] (FIGS. 4A&5A). […] There was a pronounced inhibition of colony formation (about 50%) observed with combination of the compound of Formula I and palbocilib treatment. […] There was a pronounced inhibition of colony formation (about 50%) observed with combination of the compound of Formula I and palbocilib treatment.

[5] = system: KRAS^G12D mutated Gp2D cells; assay: Clonogenic assay (colony formation), Gp2D; type: cell-based, human; conditions: for colony formation (in words): 8000 cells per well, 14 days, crystal violet, various concentrations
Protocol: as §1, §2, §3, §5

[6] = system: KRAS^G12S mutant NSCLC xenograft model A549; assay: Antitumor efficacy in A549 xenograft mouse model; type: in vivo, Female Balb/c nude mice; conditions: 28 days
Protocol: Reagents: The vehicle/control article, 100 mM acetic acid in deionized water, with pH adjustment to 4.8-5.0, was prepared and stored under ambient conditions throughout the 28-day administration in mice. The test article compound of Formula I was freshly prepared in vehicle of 100 mM acetic buffer weekly and stored under ambient conditions. The combination agent palbociclib was freshly prepared in vehicle of 50 mM Sodium Lactate Buffer, pH 3.8-4.0 weekly and stored at 2-8° C.
Animals: Female Balb/c nude mice were purchased from the Beijing Vital River Laboratory Animal Technology Co., Ltd. Mice were hosted at special pathogen-free (SPF) environment of vivarium facility and acclimated to their new environment for at least 3 days prior to initiation of any experiments. Mice were between 6-8 weeks of age at the time of implantation.
Preparation of xenograft model: A549 was a human lung cancer cell line that harbored a KRASG12S mutation. The A549 cell line was purchased from the American Type Culture Collection (ATCC® CCL-185™). A549 cells were cultured in medium containing RPMI1640 plus 10% Fetal Bovine Serum (FBS) at 37° C. in an atmosphere of 5% CO2 in air. The medium was renewed every 2 to 3 days and tumor cells were routinely sub-cultured at a confluence of 80-90% by trypsin-EDTA. The cells growing in an exponential growth phase were harvested and counted for inoculation.
A549 tumor cells were implanted into mice subcutaneously. Briefly, 200 μL cell suspensions containing 5×10^6 tumor cells mixed with 50% Matrigel were subcutaneously implanted into the right flank of mouse using a syringe. Animal health and tumor growth were monitored daily. Tumor volume was measured twice a week by caliper when tumors were palpable and measurable. When tumor volumes reached a mean of 200 mm^3 (range of 152-259 mm^3), tumor-bearing mice were randomized into different groups with 8 mice in each group. The randomization date was denoted as treatment day 0.
Treatment: Treatment started on the day of randomization. The treatment start day was denoted as treatment day 0. Mice were dosed by oral administration of vehicle control solution, the compound of Formula I at 10 mg/kg/dose BID, the compound of Formula I at 30 mg/kg QD, or palbociclib at 25 mg/kg QD monotherapy treatment groups. Two additional groups received combination treatment of the compound of Formula I and palbociclib, one dosing the compound of Formula I at 10 mg/kg/dose BID with palbociclib at 25 mg/kg QD and the other dosing the compound of Formula I at 30 mg/kg QD with palbociclib at 25 mg/kg QD. The dosing volume for each compound was 5 mL/kg and interval of BID regimen was 8 hours. Palbociclib was dosed at one-hour post the compound of Formula I QD or first BID dose in combination groups. […] Per this practice, mice in the compound of Formula I at 10 mg/kg/dose BID monotherapy group and in the compound of Formula I at 10 mg/kg/dose BID with palbociclib at 25 mg/kg QD combination group were supplied with DietGel food starting on treatment day 20 and continuing through the remaining study period. Mice in the compound of Formula I at 30 mg/kg QD monotherapy group were supplied with DietGel food starting on treatment day 17 and continuing through the remaining study period. The study was terminated on treatment day 28 as being defined in the study protocol.
Measurements and calculations: Conditions of animal health and clinical signs of toxicity were monitored daily. Subcutaneous tumor volumes and mouse body weights were measured twice a week by caliper and balance, respectively. Tumor volume, percent of tumor growth inhibition (% TGI), percent of tumor regression, percent of body weight change (% BWC), and treatment related body weight loss (% trBWL) were calculated based on following formulas: […]
Percent of tumor growth inhibition (% TGI) • vii.
[formula] • viii. TVTi was the group mean tumor volume (TV) of treatment group at last treatment day • ix. […]

[7] = Body weight change and tolerability in A549 xenograft study; type: in vivo, Female Balb/c nude mice; conditions: for treatment related body weight loss (trBWL) category: palbociclib 25 mg/kg QD, Formula I 10 mg/kg BID and 30 mg/kg QD, both combinations with palbociclib 25 mg/kg QD
Protocol: Treatment: Treatment started on the day of randomization. The treatment start day was denoted as treatment day 0. Mice were dosed by oral administration of vehicle control solution, the compound of Formula I at 10 mg/kg/dose BID, the compound of Formula I at 30 mg/kg QD, or palbociclib at 25 mg/kg QD monotherapy treatment groups. Two additional groups received combination treatment of the compound of Formula I and palbociclib, one dosing the compound of Formula I at 10 mg/kg/dose BID with palbociclib at 25 mg/kg QD and the other dosing the compound of Formula I at 30 mg/kg QD with palbociclib at 25 mg/kg QD. The dosing volume for each compound was 5 mL/kg and interval of BID regimen was 8 hours. Palbociclib was dosed at one-hour post the compound of Formula I QD or first BID dose in combination groups. […] The study was terminated on treatment day 28 as being defined in the study protocol.
Measurements and calculations: Conditions of animal health and clinical signs of toxicity were monitored daily. Subcutaneous tumor volumes and mouse body weights were measured twice a week by caliper and balance, respectively. Tumor volume, percent of tumor growth inhibition (% TGI), percent of tumor regression, percent of body weight change (% BWC), and treatment related body weight loss (% trBWL) were calculated based on following formulas:
[formula] [formula] [formula] • i. BWdx was body weight group mean at treatment day x • ii. BWd0 was body weight group mean at treatment day 0
Percentage of treatment related body weight loss at treatment day x (% trBWLdx) was calculated based on the following: • iii. If % BWC in the treatment group was positive at treatment day x: % trBWLdx=0% • iv. If % BWC was negative in both the control and treatment groups at treatment day • x:
Treatment related body weight loss (trBWL) was categorized based on the following criteria: x≤5% was no loss, 5%<x≤10% was mild loss, 10%<x≤20% was moderate loss and x>20% was severe loss.

In the case of `CC(=O)c1c(C)c2cnc(Nc3ccc(N4CCNCC4)cn3)nc2n(C2CCCC2)c1=O` [Palbociclib, reference compound], the “colony formation (in words)” value [1] is reported as “inhibition of colony formation dose dependently”, the “reduction of colony formation” value [1] is reported as “about 10%” and the inhibition at 0.1 µM ([2]; Homo sapiens, NCI-H441, palbociclib 100 nM alone, FIG. 2B) is reported as about 60%. The “colony formation (in words)” value [2] was “inhibition of colony formation dose dependently”, the inhibition at 0.1 µM ([3]; Homo sapiens, SW-620, SW620, palbociclib 100 nM alone, FIG. 3B) was about 40% and the “colony formation (in words)” value [3] was “inhibition of colony formation dose dependently”. The inhibition at 0.25 µM ([4]; Homo sapiens, LS180, LS-180, palbociclib 250 nM alone, FIG. 4B) was about 40%, the “colony formation (in words)” value [4] was “inhibition of colony formation dose dependently” and the “colony formation (in words)” value [5] was “inhibition of colony formation dose dependently”. The inhibition at 0.25 µM ([5]; Homo sapiens, palbociclib 250 nM alone, FIG. 5B) was about 40%, the “% TGI (last treatment day)” value ([6]; palbociclib 25 mg/kg QD oral) was 15% and the “% Tumor regression (last treatment day)” value ([6]; palbociclib 25 mg/kg QD oral) was 0%. The “maximum trBWL” value ([7]; 28 days oral, palbociclib 25 mg/kg QD monotherapy) was 400 and the “treatment related body weight loss (trBWL) category” value ([7]; 28 days oral) was “no trBWL”.
In the case of `COCOC[C@H]1C[C@H]2COc3c(Sc4cnc(N5CCC6(CC5)CO[C@@H](C)[C@H]6N)c(CO)n4)ccnc3N2C1` [compound of Formula I, (3-((3S,4S)-4-amino-3-methyl-2-oxa-8-azaspiro[4.5]decan-8-yl)-6-(((6aS,8S)-8-((methoxymethoxy)methyl)-6a,7,8,9-tetrahydro-6H-pyrido[3,2-b]pyrrolo[1,2-d] [1,4]oxazin-4-yl)thio)pyrazin-2-yl)methanol], the “colony formation (in words)” value [1] is reported as “inhibited the colony formation minimally”, the “reduction of colony formation” value [1] is reported as “about 10%” and the “colony formation (in words)” value [2] is reported as “inhibited the colony formation minimally”. For the same molecule, the “colony formation on increasing the concentration of Formula I” value ([2]; NCI-H441, FIG. 2B) was “robust inhibition of colony formation”, the “colony formation (treatment showed about x% of colony formation)” value ([2]; NCI-H441, Formula I 250 nM alone, FIG. 2B) was “about 40%” and the “colony formation (in words)” value [3] was “inhibited the colony formation minimally”. For the same molecule, the “colony formation (treatment showed about x% of colony formation)” value ([3]; SW620, Formula I 250 nM alone, FIG. 3B) was “about 10%”, the “colony formation on increasing the concentration of Formula I” value ([3]; SW620, single agent and combination, FIG. 3B) was “robust inhibition of colony formation” and the “colony formation (in words)” value [4] was “inhibited the colony formation minimally”. The “colony formation (treatment showed about x% of colony formation)” value ([4]; LS-180, Formula I 250 nM alone, FIG. 4B) was “about 10%”, the “colony formation (in words)” value [5] was “inhibited the colony formation minimally” and the “colony formation (treatment showed about x% of colony formation)” value ([5]; Formula I 250 nM alone, FIG. 5B) was “about 20%”. The “% TGI (last treatment day)” value ([6]; Formula I 10 mg/kg BID oral) was 52%, the “% Tumor regression (last treatment day)” value ([6]; Formula I 10 mg/kg BID oral) was 0% and the “% TGI (last treatment day)” value ([6]; Formula I 30 mg/kg QD oral) was 70%. For the same molecule, the “% Tumor regression (last treatment day)” value ([6]; Formula I 30 mg/kg QD oral) was 0%, the “clinical signs of toxicity or mortality” value ([7]; 28-day treatment period, both Formula I monotherapy groups and both combination groups) was “no clinical signs of toxicity or mortality were observed” and the “treatment related body weight loss (trBWL) category” value ([7]; 28 days oral) was “mild trBWL”.
